# Source: US20230373985A1 (Origenis Gmbh, priority 2020, published 2023)
# pIC50: −log10 of the molar value.
# Assays:
# [1] = target: T1, wt human NUAK1, full length (Homo sapiens, UniProt O60285); test: TR-FRET LanthaScreen Eu Kinase Binding Assay, NUAK1; settings: read-out: IC50, Activity Toward NUAK1
# T1 construct: 8 nM wt human NUAK1, full length (ThermoFisher/USA); purchased ThermoFisher
# T1 sequence (O60285 1-661): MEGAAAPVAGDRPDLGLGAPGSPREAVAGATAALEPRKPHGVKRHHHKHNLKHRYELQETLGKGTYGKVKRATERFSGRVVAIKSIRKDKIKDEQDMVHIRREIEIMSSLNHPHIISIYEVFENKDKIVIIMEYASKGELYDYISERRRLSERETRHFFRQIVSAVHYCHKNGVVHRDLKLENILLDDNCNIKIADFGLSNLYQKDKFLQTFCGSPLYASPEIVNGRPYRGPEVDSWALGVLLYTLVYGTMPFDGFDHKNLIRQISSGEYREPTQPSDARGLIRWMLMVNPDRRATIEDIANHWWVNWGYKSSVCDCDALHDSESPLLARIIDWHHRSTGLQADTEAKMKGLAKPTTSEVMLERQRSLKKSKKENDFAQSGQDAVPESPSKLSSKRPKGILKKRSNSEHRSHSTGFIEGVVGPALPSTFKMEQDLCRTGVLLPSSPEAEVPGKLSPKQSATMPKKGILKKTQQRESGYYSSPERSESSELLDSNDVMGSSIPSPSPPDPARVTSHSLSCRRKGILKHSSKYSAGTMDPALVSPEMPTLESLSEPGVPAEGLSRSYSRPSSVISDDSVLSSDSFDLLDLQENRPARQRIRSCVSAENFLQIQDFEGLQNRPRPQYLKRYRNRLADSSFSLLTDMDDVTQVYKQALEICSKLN
# Description: The basic protocol for TR-FRET LanthaScreen Eu Kinase Binding Assay inhibitor studies were performed as follows. LanthaScreen Kinase Binding Assays (ThermoFisher/USA) to evaluate inhibitors were performed by addition of 5 μL of test compound in corresponding DMSO dilutions/5 μl of kinase/antibody mixture, 5 μL of tracer into 384 well small volume plates. After incubation for 1 hour at room temperature, plates were read. Data analysis of emission ratios was according LanthaScreen Eu Kinase Binding Assay protocol.
# Kinase and assay components were adjusted to final concentrations according to kit protocol. For LRRK2: 5 nM wt human LRRK2, catalytic site, or G2019S human LRRK2, catalytic site (ThermoFisher/USA), 2 nM Eu-Anti-GST Antibody, 10 nM Kinase Tracer 236 in 1× Kinase Buffer A. For NUAK1: 8 nM wt human NUAK1, full length (ThermoFisher/USA), 2 nM Eu-Anti-His Antibody, 5 nM Kinase Tracer 236 in 1× Kinase Buffer A.
# [2] = target: T2, wt human LRRK2, catalytic site (Homo sapiens, UniProt Q5S007); test: TR-FRET LanthaScreen Eu Kinase Binding Assay, LRRK2 wt; settings: one range stated for wt and G2019, read-out: IC50, Activity Toward LRRK2(Wt)
# T2 construct: 5 nM wt human LRRK2, catalytic site; purchased ThermoFisher
# T2 sequence (Q5S007 970-2527 limits assumed): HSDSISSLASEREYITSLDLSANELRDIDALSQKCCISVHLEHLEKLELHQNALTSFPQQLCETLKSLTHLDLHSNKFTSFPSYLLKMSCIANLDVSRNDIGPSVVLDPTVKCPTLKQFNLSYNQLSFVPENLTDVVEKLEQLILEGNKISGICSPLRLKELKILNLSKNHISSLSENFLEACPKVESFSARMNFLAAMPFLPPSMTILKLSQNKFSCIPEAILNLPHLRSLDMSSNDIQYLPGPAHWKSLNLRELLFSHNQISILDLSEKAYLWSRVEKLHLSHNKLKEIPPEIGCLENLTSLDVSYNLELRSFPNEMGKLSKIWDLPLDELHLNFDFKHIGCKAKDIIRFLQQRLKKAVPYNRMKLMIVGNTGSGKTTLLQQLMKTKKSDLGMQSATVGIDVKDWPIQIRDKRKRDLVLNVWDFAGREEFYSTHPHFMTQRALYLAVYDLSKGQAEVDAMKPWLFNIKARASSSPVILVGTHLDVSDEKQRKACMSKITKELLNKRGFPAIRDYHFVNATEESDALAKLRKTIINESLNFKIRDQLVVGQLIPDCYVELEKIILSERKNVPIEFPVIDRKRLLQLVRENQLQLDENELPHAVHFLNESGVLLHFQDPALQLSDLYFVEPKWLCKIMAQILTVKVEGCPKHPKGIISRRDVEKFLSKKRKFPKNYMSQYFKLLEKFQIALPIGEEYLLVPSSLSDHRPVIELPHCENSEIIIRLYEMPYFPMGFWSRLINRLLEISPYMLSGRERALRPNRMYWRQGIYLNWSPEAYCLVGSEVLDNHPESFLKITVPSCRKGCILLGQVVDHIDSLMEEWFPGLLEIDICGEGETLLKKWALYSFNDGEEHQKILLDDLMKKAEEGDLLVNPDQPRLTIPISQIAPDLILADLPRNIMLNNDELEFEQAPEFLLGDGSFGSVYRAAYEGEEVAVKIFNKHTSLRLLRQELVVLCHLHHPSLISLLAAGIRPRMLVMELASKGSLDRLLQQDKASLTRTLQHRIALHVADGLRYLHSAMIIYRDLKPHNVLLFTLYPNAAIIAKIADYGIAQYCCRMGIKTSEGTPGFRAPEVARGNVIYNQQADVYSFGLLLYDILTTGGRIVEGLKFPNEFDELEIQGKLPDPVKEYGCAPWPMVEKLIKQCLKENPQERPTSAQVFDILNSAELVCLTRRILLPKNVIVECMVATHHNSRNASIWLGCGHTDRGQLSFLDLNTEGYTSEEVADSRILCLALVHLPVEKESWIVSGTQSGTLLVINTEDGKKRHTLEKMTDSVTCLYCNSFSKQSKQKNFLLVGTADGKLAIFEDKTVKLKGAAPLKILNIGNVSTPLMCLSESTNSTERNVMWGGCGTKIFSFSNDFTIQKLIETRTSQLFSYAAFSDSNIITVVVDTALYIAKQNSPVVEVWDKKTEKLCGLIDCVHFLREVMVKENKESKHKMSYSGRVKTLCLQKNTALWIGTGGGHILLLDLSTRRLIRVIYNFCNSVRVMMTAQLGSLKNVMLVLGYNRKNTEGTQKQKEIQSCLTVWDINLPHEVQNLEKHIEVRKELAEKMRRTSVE
# Summary of the method: (§1)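 NUAK1: 8 nM enzyme, 2 nM Eu-anti-His antibody, 5 nM Tracer 236. LRRK2 wt/G2019S: 5 nM enzyme, 2 nM Eu-anti-GST antibody, 10 nM Tracer 236. Kinase Buffer A, 1 h RT, TR-FRET ratio.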
# [3] = target: T3, wt human TYK2, catalytic site (Homo sapiens, UniProt P29597); test: HTRF KinEASE assay, TYK2; assay type: biochemical; settings: 1 μM ATP; read-out: IC50, Activity Toward TYK2
# T3 construct: wt human TYK2, catalytic site; purchased SignalChem
# T3 sequence (P29597 897-1176 limits assumed): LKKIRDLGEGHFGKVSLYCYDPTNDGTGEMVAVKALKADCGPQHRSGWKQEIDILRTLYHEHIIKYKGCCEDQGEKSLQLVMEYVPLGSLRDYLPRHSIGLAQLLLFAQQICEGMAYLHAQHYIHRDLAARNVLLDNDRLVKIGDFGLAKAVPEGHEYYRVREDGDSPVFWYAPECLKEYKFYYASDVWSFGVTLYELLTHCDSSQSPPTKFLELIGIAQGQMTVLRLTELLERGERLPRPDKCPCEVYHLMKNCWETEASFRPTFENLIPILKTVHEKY
# Summary of the method: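 Kinase reaction run at room temperature for at least 30 min: 2 nM TYK2 with 1 μM ATP, or 1 nM JAK2 with 100 μM ATP, each with 1 μM biotin-TK substrate. Phosphorylation detected by HTRF (60 min antibody/XL665) and evaluated from emission ratios.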
# [4] = target: T4, G2019S human LRRK2, catalytic site (Homo sapiens, UniProt Q5S007, G2019S); test: TR-FRET LanthaScreen Eu Kinase Binding Assay, LRRK2 G2019S; settings: LRRK2(G2019); one range stated for wt and G2019; read-out: IC50, Activity Toward LRRK2(G2019)
# T4 construct: G2019S human LRRK2, catalytic site; purchased ThermoFisher
# T4 sequence (Q5S007 970-2527 G2019S limits assumed): as the sequence (Q5S007 970-2527 limits assumed) above, with G1050S counted along it
# Summary of the method: as §1
# [5] = target: T5, wt human JAK1, catalytic site (Homo sapiens, UniProt P23458); test: HTRF KinEASE assay, JAK1; assay type: biochemical; settings: 2.5 μM ATP; read-out: IC50, Activity Toward JAK1
# T5 construct: wt human JAK1, catalytic site; purchased ThermoFisher
# T5 sequence (P23458 875-1153 limits assumed): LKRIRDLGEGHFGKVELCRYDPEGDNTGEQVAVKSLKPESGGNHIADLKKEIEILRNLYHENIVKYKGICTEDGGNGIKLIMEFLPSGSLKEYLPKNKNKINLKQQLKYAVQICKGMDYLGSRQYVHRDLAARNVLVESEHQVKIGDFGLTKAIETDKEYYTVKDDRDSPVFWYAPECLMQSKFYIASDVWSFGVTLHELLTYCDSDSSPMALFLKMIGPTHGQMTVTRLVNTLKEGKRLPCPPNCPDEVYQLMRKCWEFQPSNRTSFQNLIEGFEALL
# Summary of the method: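 Compounds in DMSO dilution were mixed with kinase, biotin-TK substrate and ATP and reacted for ≥30 min at room temperature. Detection reagents (antibody, streptavidin-XL665) were read 60 min later as HTRF, with emission ratios analysed per KinEASE protocol.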
Structure (SMILES),pIC50 [1],pIC50 [2],pIC50 [3],pIC50 [4],pIC50 [5]
"CCc1ccnn1-c1ccc(Nc2cn(-c3c(F)cccc3F)nc2C(N)=O)cc1 [compound 287, 1-(2,6-difluorophenyl)-4-((4-(5-ethyl-1H-pyrazol-1-yl)phenyl)amino)-1H-pyrazole-3-carboxamide]",7.00 to 8.00,6.00 to 7.00,6.00 to 7.00,6.00 to 7.00,6.00 to 7.00
"CC(C)n1ncnc1-c1ccc(Nc2cn(-c3c(F)cccc3F)nc2C(N)=O)cc1 [compound 309, 1-(2,6-difluorophenyl)-4-((4-(1-isopropyl-1H-1,2,4-triazol-5-yl)phenyl)amino)-1H-pyrazole-3-carboxamide]",6.00 to 7.00,7.00 to 8.00,6.00 to 7.00,7.00 to 8.00,6.00 to 7.00
"NC(=O)c1nn(-c2c(F)cccc2Cl)cc1Nc1ccc(C(=O)N2CCOCC2)cn1 [compound 68, 1-(2-chloro-6-fluorophenyl)-4-((5-(morpholine-4-carbonyl)pyridin-2-yl)amino)-1H-pyrazole-3-carboxamide]",6.00 to 7.00,6.00 to 7.00,7.00 to 8.00,6.00 to 7.00,6.00 to 7.00
"NC(=O)c1nn(-c2c(F)cccc2C(F)(F)F)cc1Nc1ccc(C(=O)N2CC3(CCC3)C2)cc1 [compound 61, 4-((4-(2-azaspiro[3.3]heptane-2-carbonyl)phenyl)amino)-1-(2-fluoro-6-(trifluoromethyl)phenyl)-1H-pyrazole-3-carboxamide]",6.00 to 7.00,6.00 to 7.00,7.00 to 8.00,6.00 to 7.00,6.00 to 7.00
CCc1nc(C(F)(F)F)nn1-c1ccc(Nc2cn(-c3c(F)cccc3F)nc2C(N)=O)cc1 [compound 284],6.00 to 7.00,6.00 to 7.00,7.00 to 8.00,6.00 to 7.00,6.00 to 7.00
"Cc1cc(Nc2cn(-c3c(F)cccc3F)nc2C(N)=O)ncn1 [compound 4, 1-(2,6-difluorophenyl)-4-((6-methylpyrimidin-4-yl)amino)-1H-pyrazole-3-carboxamide]",6.00 to 7.00,6.00 to 7.00,6.00 to 7.00,6.00 to 7.00,–
"NC(=O)c1nn(-c2c(F)cccc2F)cc1Nc1ccccn1 [compound 7, 1-(2,6-difluorophenyl)-4-(pyridin-2-ylamino)-1H-pyrazole-3-carboxamide]",6.00 to 7.00,6.00 to 7.00,6.00 to 7.00,6.00 to 7.00,–
"CN(C)CCn1ccnc1-c1ccc(Nc2cn(-c3c(Cl)cccc3Cl)nc2C(N)=O)cc1 [compound 251, 1-(2,6-dichlorophenyl)-4-((4-(1-(2-(dimethylamino)ethyl)-1H-imidazol-2-yl)phenyl)amino)-1H-pyrazole-3-carboxamide]",6.00 to 7.00,–,7.00 to 8.00,–,6.00 to 7.00

# More lines, now with the values ahead:
pIC50 [1],pIC50 [2],pIC50 [3],pIC50 [4],pIC50 [5],Structure (SMILES)
6.00 to 7.00,6.00 to 7.00,7.00 to 8.00,6.00 to 7.00,6.00 to 7.00,"CC(C)(C)OC(=O)NC1CCN(C(=O)c2ccc(Nc3cn(-c4c(Cl)cccc4Cl)nc3C(N)=O)cc2)C1 (stereo not drawn) [compound 323, tert-butyl_(1-(4-((3-carbamoyl-1-(2,6-dichlorophenyl)-1H-pyrazol-4-yl)amino)benzoyl)pyrrolidin-3-yl)carbamate]"
6.00 to 7.00,6.00 to 7.00,7.00 to 8.00,6.00 to 7.00,6.00 to 7.00,"CC(C)(C)NC(=O)c1ccc(Nc2cn(-c3c(F)cccc3Cl)nc2C(N)=O)cc1 [compound 27, 4-((4-(tert-butylcarbamoyl)phenyl)amino)-1-(2-chloro-6-fluorophenyl)-1H-pyrazole-3-carboxamide]"
6.00 to 7.00,6.00 to 7.00,7.00 to 8.00,6.00 to 7.00,6.00 to 7.00,"NC(=O)c1nn(-c2c(F)cccc2Cl)cc1Nc1ccc(C(=O)N2CC3(CCC3)C2)cc1 [compound 54, 4-((4-(2-azaspiro[3.3]heptane-2-carbonyl)phenyl)amino)-1-(2-chloro-6-fluorophenyl)-1H-pyrazole-3-carboxamide]"
6.00 to 7.00,6.00 to 7.00,7.00 to 8.00,6.00 to 7.00,7.00 to 8.00,"NC(=O)c1nn(-c2c(Cl)cccc2Cl)cc1Nc1ccc(C(=O)N2CCCCC2)cc1 [compound 82, 1-(2,6-dichlorophenyl)-4-((4-(piperidine-1-carbonyl)phenyl)amino)-1H-pyrazole-3-carboxamide]"
6.00 to 7.00,6.00 to 7.00,7.00 to 8.00,6.00 to 7.00,7.00 to 8.00,"Cn1ccnc1-c1ccc(Nc2cn(-c3c(Cl)cccc3Cl)nc2C(N)=O)cc1 [compound 225, 1-(2,6-dichlorophenyl)-4-((4-(1-methyl-1H-imidazol-2-yl)phenyl)amino)-1H-pyrazole-3-carboxamide]"
6.00 to 7.00,6.00 to 7.00,7.00 to 8.00,6.00 to 7.00,7.00 to 8.00,"CN1CCC(N(C)C(=O)c2ccc(Nc3cn(-c4c(Cl)ccc(F)c4Cl)nc3C(N)=O)cc2)CC1 [compound 417, 1-(2,6-dichloro-3-fluorophenyl)-4-((4-(methyl(1-methylpiperidin-4-yl)carbamoyl)phenyl)amino)-1H-pyrazole-3-carboxamide]"
6.00 to 7.00,–,7.00 to 8.00,–,7.00 to 8.00,"NC(=O)c1nn(-c2c(Cl)cccc2Cl)cc1Nc1ccc(C(=O)N2CC[C@H](N)C2)cc1 [compound 319, (S)-4-((4-(3-aminopyrrolidine-1-carbonyl)phenyl)amino)-1-(2,6-dichlorophenyl)-1H-pyrazole-3-carboxamide]"
6.00 to 7.00,–,> 8.00,–,6.00 to 7.00,"NC(=O)c1nn(-c2c(Cl)cccc2Cl)cc1Nc1ccc(C(=O)N2CC[C@H](N3CCCC3)C2)cc1 [compound 332, (S)-4-((4-([1,3′-bipyrrolidine]-1′-carbonyl)phenyl)amino)-1-(2,6-dichlorophenyl)-1H-pyrazole-3-carboxamide]"
6.00 to 7.00,–,7.00 to 8.00,–,6.00 to 7.00,"NC(=O)c1nn(-c2c(Cl)cccc2Cl)cc1Nc1ccc(OC2CCNCC2)cc1 [compound 424, 1-(2,6-dichlorophenyl)-4-((4-(piperidin-4-yloxy)phenyl)amino)-1H-pyrazole-3-carboxamide]"
6.00 to 7.00,–,> 8.00,–,7.00 to 8.00,"CN(C)[C@H]1CCN(C(=O)c2ccc(Nc3cn(-c4c(Cl)cccc4Cl)nc3C(N)=O)cc2)C1 [compound 314, (S)-1-(2,6-dichlorophenyl)-4-((4-(3-(dimethylamino)pyrrolidine-1-carbonyl)phenyl)amino)-1H-pyrazole-3-carboxamide]"
